Experimental data: ChEMBL document CHEMBL1133658 (J Med Chem, 2000)

Biological target: T1, Tubulin alpha chain (Sus scrofa, UniProt P02550)
T1 sequence (P02550 whole entry, looked up): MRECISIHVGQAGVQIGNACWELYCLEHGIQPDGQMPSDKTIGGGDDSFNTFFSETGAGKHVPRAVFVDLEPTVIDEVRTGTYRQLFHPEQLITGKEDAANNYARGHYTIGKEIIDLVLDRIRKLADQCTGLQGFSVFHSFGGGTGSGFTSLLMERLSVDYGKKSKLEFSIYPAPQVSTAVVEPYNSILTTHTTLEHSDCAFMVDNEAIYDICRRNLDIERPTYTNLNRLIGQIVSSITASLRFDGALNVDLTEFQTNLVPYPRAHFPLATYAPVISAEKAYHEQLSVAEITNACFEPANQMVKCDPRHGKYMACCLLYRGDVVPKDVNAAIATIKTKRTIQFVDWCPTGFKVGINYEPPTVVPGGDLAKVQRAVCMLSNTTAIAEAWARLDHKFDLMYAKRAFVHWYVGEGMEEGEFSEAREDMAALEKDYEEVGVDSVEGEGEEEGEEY

| SMILES | IC50 [nM] |
| --- | --- |
| Oc1cc(-c2ccc(F)cc2)nc2ncc(Cl)cc12 | 15800 |
| Nc1cccc(-c2cc(O)c3cc4c(cc3n2)OCO4)c1 | 724 |
| Oc1cc(-c2cccc(C(F)(F)F)c2)nc2cc3c(cc12)OCO3 | 813 |
| CCCC(=O)O[C@H]1CCc2cc(OC)c(OC)c(OC)c2-c2ccc(SC)cc21 | 2820 |
| Oc1cc(-c2cccc3ccccc23)nc2ncccc12 | 1100 |
| Cc1cnc2nc(-c3sccc3C)cc(O)c2c1 | 3800 |
| COc1cc2c(c(OC)c1OC)-c1ccc(SC)cc1[C@@H](O)C=C2 | 1820 |
| Cc1ccc2c(O)cc(-c3cccc4ccccc34)nc2n1 | 661 |
| COc1cc2c(c(OC)c1OC)-c1ccc(SC)cc1[C@H](OC(C)=O)CC2 | 3090 |
| Oc1cc(-c2cccc(F)c2)nc2cc3c(cc12)OCO3 | 525 |
| COc1cccc([C@@H]2CC(=O)c3cc4c(cc3N2)OCO4)c1 | 692 |
| Cc1ccnc2nc(-c3cccc4ccccc34)cc(O)c12 | 933 |
| COc1ccc2c(c1)CC=Cc1cc(OC)c(OC)c(OC)c1-2 | 1510 |
| Cc1cnc2nc(-c3ccc(Cl)cc3)cc(O)c2c1 | 2000 |
| Cc1ccc2c(O)cc(-c3ccc(Br)s3)nc2n1 | 1510 |
| COc1cc2c(c(OC)c1OC)-c1ccc(SC)c(=O)cc1[C@@H](NCc1ccc(F)cc1)CC2 | 3240 |
| Cc1ccc2c(O)cc(-c3ccc(Cl)cc3)nc2n1 | 11000 |
| COc1cccc(-c2cc(O)c3cc(C)cnc3n2)c1 | 794 |
| COc1cccc(-c2cc(O)c3c(Cl)ccnc3n2)c1 | 724 |

| SMILES | IC50 [nM] |
| --- | --- |
| Cc1ccc2c(O)cc(-c3sccc3C)nc2n1 | 2820 |
| COc1cccc([C@H]2CC(=O)c3cc4c(cc3N2)OCO4)c1 | 2340 |
| Cc1cc(C)c2c(O)cc(-c3cccc(Cl)c3)nc2n1 | 776 |
| Cc1ccc(-c2cc(O)c3ccc(C)nc3n2)cc1 | 4900 |
| COc1ccc2c(c1)C(NC(C)=O)CCc1cc(OC)c(OC)c(OC)c1-2 (configuration not stated) | 1510 |
| COc1cc2c(c(OC)c1O)-c1ccc(SC)c(=O)cc1[C@@H](NC(C)=O)CC2 | 1510 |
| COc1ccc(-c2cc(O)c3c(C)ccnc3n2)cc1 | 8710 |
| COc1cccc(-c2cc(O)c3c(Br)ccnc3n2)c1 | 1510 |
| Cc1ccc2c(O)cc(-c3ccc(Cl)s3)nc2n1 | 1700 |
| Cc1cc(C)c2c(O)cc(-c3cccc4ccccc34)nc2n1 | 776 |
| COc1cccc(-c2cc(O)c3c(C)cc(C)nc3n2)c1 | 871 |
| Cc1ccc2c(O)cc(-c3cccs3)nc2n1 | 6030 |
| Oc1cc(-c2cccs2)nc2cc3c(cc12)OCO3 | 2190 |
| COC(=O)c1ccc2c(c1)C(NC(C)=O)CCc1cc(OC)c(OC)c(OC)c1-2 (configuration not stated) | 1410 |
| COc1ccc(-c2cc(O)c3cc(C)cnc3n2)cc1 | 7760 |
| Cc1ccc2c(=O)cc(-c3cccc(F)c3)[nH]c2n1 | 525 |
| COc1cc2c(c(OC)c1OC)-c1ccc(SC)c(=O)cc1[C@@H](COC(=O)c1cccc(C#N)c1)C2 | 3020 |
| Cc1cccc(-c2cc(O)c3cc(C)cnc3n2)c1 | 1510 |

Other lines, results leading:

| IC50 [nM] | SMILES |
| --- | --- |
| 3390 | COc1cc2c(c(OC)c1OC)-c1ccc(SC)c(=O)cc1[C@@H](COC(=O)c1cccc(F)c1)C2 |
| 468 | Oc1cccc(-c2cc(O)c3cc4c(cc3n2)OCO4)c1 |
| 575 | COc1cccc(-c2cc(O)c3cc4c(cc3n2)OCO4)c1 |
| 2290 | COc1cc2c(c(OC)c1OC)-c1ccc(SC)c(=O)cc1[C@@H](NCc1ccc([N+](=O)[O-])cc1)CC2 |
| 3310 | COc1cc2c(c(OC)c1O)-c1ccc(SC)c(=O)cc1[C@@H](NC(=O)CC(C)=O)CC2 |
| 646 | CNc1cccc(-c2cc(O)c3cc4c(cc3n2)OCO4)c1 |
| 1910 | COc1ccc2c(c1)CCCc1cc(OC)c(OC)c(OC)c1-2 |
| 724 | Cc1cnc2nc(-c3cccc(Cl)c3)cc(O)c2c1 |
| 7940 | Cc1ccc2c(O)cc(-c3ccsc3)nc2n1 |
| 2510 | Oc1cc(-c2ccc3ccccc3c2)nc2ncc(Cl)cc12 |
| 1410 | COc1cc2c(c(OC)c1OC)-c1ccc(SC)c(=O)cc1[C@@H](NC(=O)CC(C)=O)CC2 |
| 2400 | Cc1ccc(-c2cc(O)c3cc(C)cnc3n2)cc1 |
| 4790 | Cc1ccnc2nc(-c3ccc(Cl)cc3)cc(O)c12 |
| 2690 | COc1cc2c(c(OC)c1OC)-c1ccc(SC)cc1[C@H](OC(=O)c1ccccc1)CC2 |
| 4790 | COc1cc2c(c(OC)c1OC)-c1ccc(SC)cc1[C@@H](OC(=O)c1cccnc1)CC2 |
| 10000 | Cc1ccc(-c2cc(O)c3c(C)cc(C)nc3n2)cc1 |
| 1700 | COc1c(O)cc2c(c1OC)-c1ccc(SC)c(=O)cc1[C@@H](NC(=O)CC(C)=O)CC2 |
| 562 | COc1cc2c(c(OC)c1OC)-c1ccc(SC)c(=O)cc1[C@@H](OC(=O)c1ccncc1)CC2 |
| 2290 | COc1ccc(CN[C@H]2CCc3cc(OC)c(OC)c(OC)c3-c3ccc(SC)c(=O)cc32)c(OC)c1OC |
| 2690 | Cc1cnc2nc(-c3ccc(C)s3)cc(O)c2c1 |
| 363 | COc1cccc(-c2cc(O)c3cc(N4CCOCC4)ccc3n2)c1 |
| 1700 | Cc1ccc2c(O)cc(-c3ccc(C)s3)nc2n1 |
| 2510 | COc1cc2c(c(OC)c1OC)-c1ccc(SC)c(=O)cc1[C@@H](NCc1ccc(C#N)cc1)CC2 |
| 759 | COc1cc2c(c(OC)c1OC)-c1ccc(SC)c(=O)cc1[C@@H](OC(=O)c1cccnc1)CC2 |
| 457 | Oc1cc(-c2ccccc2F)nc2ccc(N3CCCC3)cc12 |
| 18200 | Cc1ccnc2nc(-c3ccc(F)cc3)cc(O)c12 |
| 2820 | COc1c(O)cc2c(c1OC)-c1ccc(SC)c(=O)cc1[C@@H](NC(C)=O)CC2C=O (some centres not stated) |

| IC50 [nM] | SMILES |
| --- | --- |
| 2880 | Cc1ccc(-c2cc(O)c3c(C)ccnc3n2)cc1 |
| 1910 | Cc1cccc(-c2cc(O)c3ccc(C)nc3n2)c1 |
| 2820 | COc1cc2c(c(OC)c1OC)-c1ccc(SC)cc1[C@@H](OC(C)=O)CC2 |
| 2090 | Cc1cnc2nc(-c3ccc4ccccc4c3)cc(O)c2c1 |
| 3310 | Cc1cccc(-c2cc(O)c3cccnc3n2)c1 |
| 1410 | COc1cccc(-c2cc(O)c3ccccc3n2)c1 |
| 1820 | Cc1ccnc2nc(-c3ccc4ccccc4c3)cc(O)c12 |
| 3630 | COc1cc2c(c(OC)c1OC)-c1ccc(SC)c(=O)cc1[C@@H](COC(=O)c1ccccc1F)C2 |
| 18200 | COc1ccccc1-c1cc(O)c2cc(C)cnc2n1 |
| 2400 | COc1cc2c(c(OC)c1OC)-c1ccc(SC)cc1[C@H](OC(=O)c1cccnc1)CC2 |
| 1410 | COc1cc2c(c(OC)c1OC)-c1ccc(SC)c(=O)cc1[C@@H](OC(=O)C13CCC(C)(C(=O)O1)C3(C)C)CC2 (some centres not stated) |
| 380 | COc1cccc(-c2cc(O)c3cc(N(C)C)ccc3n2)c1 |
| 14100 | Oc1cc(-c2ccc3ccccc3c2)nc2ncccc12 |
| 1510 | Oc1cc(-c2cccc(Cl)c2)nc2ncccc12 |
| 4790 | CCCC(=O)O[C@@H]1CCc2cc(OC)c(OC)c(OC)c2-c2ccc(SC)cc21 |
| 2190 | COc1ccc2c(c1)C=CCc1cc(OC)c(OC)c(OC)c1-2 |
| 741 | Cc1cc(C)c2c(O)cc(-c3cccc(F)c3)nc2n1 |
| 447 | O=C(Oc1cccc(-c2cc(O)c3cc4c(cc3n2)OCO4)c1)c1ccccc1 |
| 4790 | Cc1ccc2c(O)cc(-c3cc(C)sc3C)nc2n1 |
| 955 | COc1cccc(-c2cc(O)c3cccnc3n2)c1 |
| 5130 | Cc1ccc2c(O)cc(-c3ccc4ccccc4c3)nc2n1 |
| 2400 | COc1cc2c(c(OC)c1OC)-c1ccc(SC)c(=O)cc1[C@@H](NC(=O)C13CCC(C)(C(=O)O1)C3(C)C)CC2 (some centres not stated) |
| 4470 | COc1cc2c(c(OC)c1OC)-c1ccc(SC)c(=O)cc1[C@@H](COC(=O)c1ccc(F)cc1)C2 |
| 759 | COc1cccc(-c2cc(O)c3ccc(C)nc3n2)c1 |
| 372 | Oc1cc(-c2cccc(Cl)c2)nc2cc3c(cc12)OCO3 |
| 550 | Cc1cnc2nc(-c3cccc4ccccc34)cc(O)c2c1 |
| 891 | Cc1ccc2c(O)cc(-c3cccc(Cl)c3)nc2n1 |

Biological target: T1, Tubulin alpha chain
Experiment: Inhibition of tubulin polymerization interacting at the colchicine binding site

| IC50 [nM] | SMILES |
| --- | --- |
| 631 | Cc1cnc2nc(-c3cccc(F)c3)cc(O)c2c1 |
